Laboratory results: US6046239A, “Anthranilic acid analogs” (American Home Products Corporation, priority 1998, dated 2000)
Where a name gives a salt, the structure may show the parent alone. Read-outs that look alike come from different tables or passages of the source.

Tests used:
[1] = tested on: Isolated Rat Bladder Strips; experiment: Inhibition of contractions in isolated rat bladder strips; format: cell-based; details: for IC50: contractions enhanced by additional 15 mM KCl, read-out: IC50 /μM Bladder (B); for IC50 (A)/ IC50 (B): ratio aorta/bladder, indication of selectivity
Experimental: Sprague-Dawley rats (150-200 g) are rendered unconscious by CO2 asphyxiation and then euthanized by cervical dislocation. […] The bladder is opened and then cut into strips 1-2 mm in width and 7-10 mm in length. The strips are subsequently suspended in a 10 mL tissue bath under an initial resting tension of 1.5 g. The strips are held in place by two surgical clips one of which is attached to a fixed hook while the other is attached to an isometric force transducer. […] The carbachol is then washed out and the tissue allowed to relax to its resting level of activity. Following a further 30 min period of recovery an additional 15 mM KCl are introduced into the tissue bath. […] Following stabilization of this enhanced level of contractile activity, incremental increases in the concentration of test compound or vehicle are introduced into the tissue bath. Contractile activity is measured for each compound or vehicle concentration during the last minute of a 30 minute challenge.

Aorta = experiment: Inhibition of contractions in aorta (indication of selectivity); format: cell-based; details: aorta
[2] = target: T1, calcium-dependent large conductance potassium channels (maxi K^+) (Rattus norvegicus, UniProt Q62976); experiment: Potassium channel activation, whole cell patch clamp in isolated rat detrusor cells; format: cell-based; details: glyburide 5 μM added to the superfusate; data not shown
T1 construct: endogenous in cells; host or cells: freshly isolated rat detrusor (urinary bladder smooth muscle) cells
T1 sequence (Q62976 whole entry): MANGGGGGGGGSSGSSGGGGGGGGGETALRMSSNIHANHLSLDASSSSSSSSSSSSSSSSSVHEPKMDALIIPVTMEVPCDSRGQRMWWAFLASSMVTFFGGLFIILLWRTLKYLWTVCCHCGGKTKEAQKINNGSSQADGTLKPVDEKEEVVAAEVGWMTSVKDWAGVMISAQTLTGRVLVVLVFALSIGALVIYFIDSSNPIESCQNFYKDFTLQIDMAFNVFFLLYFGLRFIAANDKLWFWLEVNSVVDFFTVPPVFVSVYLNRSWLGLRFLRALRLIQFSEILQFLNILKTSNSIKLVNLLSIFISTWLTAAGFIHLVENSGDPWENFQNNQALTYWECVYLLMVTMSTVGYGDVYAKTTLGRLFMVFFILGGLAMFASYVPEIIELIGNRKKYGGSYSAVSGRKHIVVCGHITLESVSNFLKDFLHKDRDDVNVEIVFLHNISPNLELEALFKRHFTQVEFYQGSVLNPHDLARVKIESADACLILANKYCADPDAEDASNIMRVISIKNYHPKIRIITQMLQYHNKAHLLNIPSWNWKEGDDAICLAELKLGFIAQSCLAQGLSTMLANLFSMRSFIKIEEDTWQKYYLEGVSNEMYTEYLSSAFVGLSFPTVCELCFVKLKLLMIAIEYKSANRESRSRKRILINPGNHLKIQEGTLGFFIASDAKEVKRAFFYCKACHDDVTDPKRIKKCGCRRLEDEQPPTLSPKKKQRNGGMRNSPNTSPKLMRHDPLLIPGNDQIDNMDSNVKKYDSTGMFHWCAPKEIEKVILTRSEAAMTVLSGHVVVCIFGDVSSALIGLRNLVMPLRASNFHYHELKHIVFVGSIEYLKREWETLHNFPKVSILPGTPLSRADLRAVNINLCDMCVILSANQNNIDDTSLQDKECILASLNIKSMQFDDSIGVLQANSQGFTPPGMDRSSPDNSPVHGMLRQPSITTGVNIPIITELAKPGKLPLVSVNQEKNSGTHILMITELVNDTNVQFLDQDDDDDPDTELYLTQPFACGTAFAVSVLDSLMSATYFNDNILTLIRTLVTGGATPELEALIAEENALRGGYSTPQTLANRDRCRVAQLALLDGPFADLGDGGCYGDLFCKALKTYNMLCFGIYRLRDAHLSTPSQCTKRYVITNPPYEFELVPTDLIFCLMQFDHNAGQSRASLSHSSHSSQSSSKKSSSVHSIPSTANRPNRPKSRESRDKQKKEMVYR
T1 sequence (P97678 whole entry partner): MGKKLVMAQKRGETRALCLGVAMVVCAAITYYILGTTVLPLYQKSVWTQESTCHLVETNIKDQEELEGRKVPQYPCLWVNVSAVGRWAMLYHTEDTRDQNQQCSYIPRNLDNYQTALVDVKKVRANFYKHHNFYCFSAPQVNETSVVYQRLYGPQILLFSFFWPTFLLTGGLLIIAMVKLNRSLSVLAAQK
Experimental: Potassium channel activation by compounds of the present invention was established by examining the effect of the compound of Example 1 on calcium-dependent large conductance potassium channels (maxi K^+) as follows:
Rat detrusor cells were isolated in a manner previously described for guinea-pig detrusor (Sheldon and Argentieri, 1995). Male Sprague-Dawley rats (200-400 grams) were euthanized by CO2 inhalation and exsanguination. Their urinary bladders were rapidly removed and placed in 37° C. physiological solution with the following composition (mM): Na glutamate (80.0), NaCl (54.7), KCl (5.0), NaHCO3 (25.0), MgCl2.2H2 O (2.5), D-glucose (11.8) and CaCl2 (0.2) gassed with CO2 --O2, 95%/5% for a final pH of 7.4. The dome of the bladder was isolated from the trigon region and the mucosa was removed. This tissue was then cut into 2-3 mm wide strips and placed in fresh buffer for 1 hour. Tissues were then transferred into 10.0 ml of an isolation buffer containing the above composition plus collagenase type VIII (1.0 mg/ml) and pronase (0.25 mg/ml). After 10 minutes the isolation buffer was replaced with fresh isolation buffer for an additional 10 min. […]
Whole cell recordings were made using broken patch assess. […] After stability was achieved control currents were recorded. […] Currents were recorded for 5 to 10 minutes or until compound effects reached steady state. […]

[3] = tested on: hypertrophied bladder (detrussor) smooth muscle; experiment: Inhibition of spontaneous contractions in vivo, hypertrophied rat bladder model; details: 30 mg/kg i.v.
Excerpt: In addition, we tested the ability of compounds to inhibit the hyperactivity of hypertrophied bladder (detrussor) smooth muscle in conscious female rats with hypertrophied bladders and thereby alleviate urinary incontinence in rats according to the following protocol described by Malmgrem (A. Malmgrem, K. E. Andersson, C. Sjogren, P. O. Andersson, Effects of Pinacidil and Cromakalim (BRL 34915) on Bladder Function in Rats with Detrusor Instability, J. Urol. 142:1134, 1989.):
Female Sprague-Dawley rats, ranging in weight from 190-210 g are used. Up to 25 animals are prepared each time. After development of bladder hypertrophy 4-8 animals are used per test.
Compounds are dissolved in PEG-200 and administered by gastric gavage or intraveneously in a volume of 5 mL/kg. For primary screening all drugs are administered at the arbitrary dose of 10 mg/kg p.o. to groups of 4 rats.
The animals are anesthetized with halothane. […]
The following urodynamic variables are recorded:
The mean value of each variable is calculated before and after compound administration. For each compound the changes in the variables measured are compared to the values obtained before treatment and expressed as percent inhibition. The data are also subjected to 2-way analysis of variance to determine significant (p<0.05) changes in the variable measured. […]

[4] = Rattus norvegicus, isolated rat bladder strips
[5] = isolated rat bladder strips, lithium salt hemihydrate

Row | IC50 [1, 4] [µM] | IC50 (A)/ IC50 (B) [1] | IC50 (Aorta) [µM] | SMILES | also measured
1 | 3.37 ± 0.59 | 11.7 | 39.5 ± 12 | O=C(/C=C/c1ccc(C(F)(F)F)cc1)Nc1ccccc1C(=O)O [Example 4] | –
2 | 14.4 ± 4.5 | – | 15.6 ± 8.96 | COc1ccc(/C=C/C(=O)Nc2ccccc2C(=O)O)cc1OC [Tranilast, reference compound] | smooth muscle relaxant potency and bladder selectivity ([1]; bladder tissue over vascular tissue, Table 1): not to be a potent or bladder selective smooth muscle relaxant
3 | 9.6 ± 7.4 | – | – | COc1ccc(NC(=O)/C(C)=C/c2ccc(C(F)(F)F)cc2)c(C(=O)O)c1 [Example 13, (E)-5-Methoxy-2-[2-methyl-3-(4-trifluoromethyl-phenyl)-acryloylamino]-benzoic acid] | –
4 | 4.9 ± 2.6 | 11 | 53.5 ± 7 | O=C(/C=C/c1ccc(Br)cc1)Nc1ccccc1C(=O)O [Example 3, (E)-2-[3-(4-Bromo-phenyl)-acryloylamino]-benzoic acid] | –
5 | – | 3.58 | 4.23 ± 0.66 | C/C(=C\c1ccc(C(F)(F)F)cc1)C(=O)Nc1ccc(Cl)cc1C(=O)O [Example 8] | IC50 ([1]; isolated rat bladder strips): 1.18 ± 0.45 µM
6 | – | – | – | COc1ccc(Cl)cc1C(=O)NCCc1ccc(S(=O)(=O)NC(=O)NC2CCCCC2)cc1 [glyburide, reference compound] | effect of glyburide on outward current [2]: no effect
7 | – | 4.81 | 6.93 ± 2.4 | C/C(=C\c1ccc(C(F)(F)F)cc1)C(=O)Nc1cc(Cl)ccc1C(=O)O [Example 10, (E)-4-Chloro-2-[2-methyl-3-(4-trifluoromethyl-phenyl)-acryloylamino]-benzoic acid] | IC50 ([1]; isolated rat bladder strips): 1.44 ± 0.85 µM
8 | – | – | – | C/C(=C\C(=O)Nc1ccccc1C(=O)O)c1ccc(C(F)(F)F)cc1 [Example 7, (E)-2-[3-(4-Trifluoromethyl-phenyl)-but-2-enoylamino]-benzoic acid sodium salt] | IC50 ([1]; isolated rat bladder strips): 7.4 ± 4 µM
9 | 14.1 ± 1.77 | 8.4 | 118 ± 27.6 | O=C(CCc1ccc(C(F)(F)F)cc1)Nc1ccccc1C(=O)O [Example 2, 2-[3-(4-Trifluoromethyl-phenyl)-propionylamino]-benzoic acid] | –
10 | 18.1 ± 4.2 | – | – | C=C(CC(=O)Nc1ccccc1C(=O)O)c1ccc(C(F)(F)F)cc1 [Example 6, 2-[3-(4-Trifluoromethyl-phenyl)-but-3-enoylamino]-benzoic acid] | –
11 | 10.8 ± 0.6 | – | – | CCN(CC)C(=O)COC(=O)c1ccccc1NC(=O)/C(C)=C/c1ccc(C(F)(F)F)cc1 [Example 14, (E)-2-[2-Methyl-3-(4-trifluoromethyl-phenyI)-acryloylamino]-benzoic acid diethylcarbamoylmethyl ester] | inhibition at 30 µM ([1]; 30 μM, isolated rat bladder strips, read-out: I = Percent inhibition at 30 μM): 35.6 ± 5%
12 | – | – | – | C/C(=C\c1ccc(C(F)(F)F)cc1)C(=O)Nc1ccc(Cl)cc1C(=O)O [Example 9, (E)-5-Chloro-2-[2-methyl-3-(4-trifluoromethyl-phenyl)-acryloylamino]-benzoic acid lithium salt hemihydrate] | IC50 [1, 5]: 0.52 ± 0.24 µM; IC50 (A)/ IC50 (B) ([1]; lithium salt hemihydrate): 5.31; IC50 (Aorta; lithium salt hemihydrate): 2.76 ± 1.63 µM; % Red (F): percent reduction in the total number of spontaneous contractions [3]: -71 ± 6%
13 | 11.4 ± 3.8 | – | – | C/C(=C\c1ccc(C(F)(F)F)cc1)C(=O)Nc1ncccc1C(=O)O [Example 12, (E)-2-[2-Methyl-3-(4-trifluoromethyl-phenyl)-acryloylamino]-nicotinic acid] | –
14 | – | – | – | C/C(=C\c1ccc(C(F)(F)F)cc1)C(=O)Nc1cc(Cl)ccc1C(=O)O [Example 11, (E)-4-Chloro-2-[2-methyl-3-(4-trifluoromethyl-phenyl)-acryloylamino]-benzoic acid lithium salt hemihydrate] | IC50 [1, 5]: 3.45 ± 0.75 µM
15 | – | – | – | O=C(/C=C/c1ccc(C(F)(F)F)cc1)Nc1ccccc1C(=O)O [Example 5, (E)-2-[3[(4-Trifluoromethyl-phenyl)-acryloylamino]-benzoic acid lithium salt hemihydrate] | IC50 [1, 5]: 5.3 ± 2.8 µM; IC50 (A)/ IC50 (B) ([1]; lithium salt hemihydrate): 27.5; IC50 (Aorta; lithium salt hemihydrate): 146 ± 49 µM

Row | SMILES | IC50 [1, 4] [µM] | IC50 (A)/ IC50 (B) [1] | IC50 (Aorta) [µM] | also measured
16 | C/C(=C\c1ccc(C(F)(F)F)cc1)C(=O)Nc1ccccc1C(=O)O [Example 1, Step 3, (E)-2-[2-Methyl-3-(4trifluoromethyl-phenyl)-acryloylamino]-benzoic acid] | 3.7 ± 2.1 | 16.5 | 61.2 ± 9.2 | –
